Blank lines part the entries; values can stand above or below the sequence they belong to.
Tested on: GST-tagged Cn
Experiment: PEPperPRINT peptide microarray binding assay with GST-tagged Cn
Summary of the method: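 Qualitative binding: peptides printed on a PEPperPRINT microarray were incubated overnight at 4 °C with 1 mg/ml GST-tagged Cn, then detected with Alexa-Fluor 647 anti-GST antibody. Log fluorescence was baseline-corrected, averaged over duplicate spots, Z-normalized and averaged across five repeats.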

[1] = max over the spots listed under Location on chip
[2] = mean over the spots listed under Location on chip
[3] = max over the chip locations listed for the peptide (two spots)
[4] = mean over the chip locations listed for the peptide (two spots)
[5] = GST-tagged Cn, max over the spots named in Location on chip
[6] = GST-tagged Cn, mean over the spots named in Location on chip
[7] = GST-tagged Cn, max over the spots on the chip (two locations)
[8] = GST-tagged Cn, mean over the spots on the chip (two locations)
[9] = GST-tagged Cn, max over the chip locations
[10] = GST-tagged Cn, mean over the chip locations
[11] = GST-tagged Cn, max over the chip spots listed under Location on chip
[12] = GST-tagged Cn, mean over the chip spots listed under Location on chip

Sequence: TFWMNPQFKINLEEED [SeqCAPN11_Salmo_salar]
Chip Fluorescence (max) [1]: 3.077 | Chip Fluorescence (mean) [2]: 0.4499

Sequence: TFWMNPQFKISLEDPD [SeqRBMlowT_4243]
Chip Fluorescence (max) [3]: 3.47 | Chip Fluorescence (mean) [4]: 1.839

Sequence: TFWMNPQFKVKLEEVD [SeqRBMlowT_6848]
Chip Fluorescence (max) [5]: 1.645 | Chip Fluorescence (mean) [6]: 1.054

Sequence: TFWMNPQFRITLDDPD [SeqRBMlowT_69]
Chip Fluorescence (max) [1]: 3.266 | Chip Fluorescence (mean) [2]: 0.639

Sequence: TFWMNPQYMIKLEEED [SeqCAPN11_Monodelphis_domestica]
Chip Fluorescence (max) [3]: 4.262 | Chip Fluorescence (mean) [4]: 0.2921

Sequence: TFWSNPQFKIKLEDPD [SeqRBMlowT_7428]
Chip Fluorescence (max) [5]: 1.373 | Chip Fluorescence (mean) [6]: 0.3282

Sequence: TFWSNPQFKIKLEEPD [SeqRBMlowT_2229]
Chip Fluorescence (max) [7]: 1.024 | Chip Fluorescence (mean) [8]: -0.06201

Sequence: TFWSNPQFKITLDEPD [SeqRBMlowT_5518]
Chip Fluorescence (max) [5]: 1.348 | Chip Fluorescence (mean) [6]: -0.7061

Sequence: TFWSNPQFKVSLEEPD [SeqRBMlowT_2967]
Chip Fluorescence (max) [5]: 1.583 | Chip Fluorescence (mean) [6]: -0.5694

Sequence: TFWSNPQFRITLEDPD [SeqRBMlowT_45]
Chip Fluorescence (max) [3]: 4.041 | Chip Fluorescence (mean) [4]: 0.007175

Sequence: TFWTNPQFKITLEEED [SeqRBMlowT_217]
Chip Fluorescence (max) [3]: 4.393 | Chip Fluorescence (mean) [4]: 0.02338

Sequence: TFWTNPQFKVKLEEVD [SeqRBMlowT_284]
Chip Fluorescence (max) [7]: 1.062 | Chip Fluorescence (mean) [8]: -0.1705

Sequence: TFWTNPQFKVKLTDPD [SeqRBMlowT_2929]
Chip Fluorescence (max) [9]: -0.3202 | Chip Fluorescence (mean) [10]: -2.672

Sequence: TFWTNPQFKVSLEEED [SeqRBMlowT_1125]
Chip Fluorescence (max) [1]: 2.918 | Chip Fluorescence (mean) [2]: 1.097

Sequence: TFWTNPQFKVTLEEPD [SeqRBMlowT_2957]
Chip Fluorescence (max) [7]: 1.208 | Chip Fluorescence (mean) [8]: -0.4648

Sequence: TFWTNPQFNVTLSEAD [SeqRBM_9395]
Chip Fluorescence (max) [1]: 2.777 | Chip Fluorescence (mean) [2]: 0.5231

Sequence: TFWTNPQFRIKLEDVD [SeqRBMlowT_2]
Chip Fluorescence (max) [11]: 0.5307 | Chip Fluorescence (mean) [12]: -0.7635

Sequence: TFWTNPQFRIKLEEVD [SeqRBMlowT_2987]
Chip Fluorescence (max) [3]: 3.672 | Chip Fluorescence (mean) [4]: 2.469

Sequence: TFWTNPQFRITLEEED [SeqRBMlowT_658]
Chip Fluorescence (max) [3]: 4.839 | Chip Fluorescence (mean) [4]: 1.41

Sequence: TFWTNPQFRITLEEVD [SeqRBMlowT_245]
Chip Fluorescence (max) [1]: 2.7449 | Chip Fluorescence (mean) [2]: 0.8824

Sequence: TFWTNPQFRLKIPQVD [SeqRBMlowT_93]
Chip Fluorescence (max) [1]: 3.328 | Chip Fluorescence (mean) [2]: 1.497

Sequence: TFWTNPQFRLKVVDPD [SeqRBMlowT_7375]
Chip Fluorescence (max) [5]: 1.609 | Chip Fluorescence (mean) [6]: 0.5158

Sequence: TFWTNPQFRVTLTEPD [SeqRBMlowT_9005]
Chip Fluorescence (max) [3]: 5.558 | Chip Fluorescence (mean) [4]: 0.117

Sequence: TFWTNPQFVITLEEVD [SeqRBMlowT_928]
Chip Fluorescence (max) [1]: 3.091 | Chip Fluorescence (mean) [2]: 0.8732

Sequence: TFWTNPQFVVSLEEPD [SeqRBMlowT_8096]
Chip Fluorescence (max) [7]: 1.137 | Chip Fluorescence (mean) [8]: -0.6823

Sequence: TFWTNPQFVVSLPEPD [SeqRBMlowT_3270]
Chip Fluorescence (max) [11]: 0.9379 | Chip Fluorescence (mean) [12]: -0.001001

Sequence: TFWTNPQIKLSLTEKD [SeqCAPN11_Camelus_ferus]
Chip Fluorescence (max) [1]: 3.072 | Chip Fluorescence (mean) [2]: 1.377

Sequence: TFWTNPQYKIKLEDPD [SeqRBMlowT_629]
Chip Fluorescence (max) [11]: 0.8637 | Chip Fluorescence (mean) [12]: -0.07489

Sequence: TFWTNPQYKIKLEEPD [SeqRBMlowT_46]
Chip Fluorescence (max) [11]: 0.956 | Chip Fluorescence (mean) [12]: -0.7275

Sequence: TFWTNPQYKITLEEDD [SeqRBMlowT_9018]
Chip Fluorescence (max) [1]: 2.666 | Chip Fluorescence (mean) [2]: -0.09775

Sequence: TFWTNPQYKITLEEED [SeqRBMlowT_3204]
Chip Fluorescence (max) [1]: 3.2 | Chip Fluorescence (mean) [2]: 1.112

Sequence: TFWTNPQYKITLEEPD [SeqRBMlowT_54]
Chip Fluorescence (max) [7]: 1.133 | Chip Fluorescence (mean) [8]: -0.8126

Sequence: TFWTNPQYKVKLEEED [SeqRBMlowT_252]
Chip Fluorescence (max) [7]: 1.065 | Chip Fluorescence (mean) [8]: 0.727

Sequence: TFWTNPQYRIKLEEAD [SeqRBMlowT_241]
Chip Fluorescence (max) [1]: 3.006 | Chip Fluorescence (mean) [2]: 0.9242

Sequence: TFWTNPQYRIKLEEED [SeqRBMlowT_1298]
Chip Fluorescence (max) [5]: 1.462 | Chip Fluorescence (mean) [6]: 0.439

Sequence: TFWTNPQYRIKLEEPD [SeqRBMlowT_34]
Chip Fluorescence (max) [9]: 0.1832 | Chip Fluorescence (mean) [10]: -0.5691

Sequence: TFWTNPQYRIKLTEPD [SeqRBMlowT_234]
Chip Fluorescence (max) [11]: 0.5195 | Chip Fluorescence (mean) [12]: -0.7647

Sequence: TFWTNPQYRITLDSSD [SeqRBMlowT_972]
Chip Fluorescence (max) [5]: 1.828 | Chip Fluorescence (mean) [6]: -0.3429

Sequence: TFWTNPQYRITLEDED [SeqRBMlowT_1185]
Chip Fluorescence (max) [3]: 4.604 | Chip Fluorescence (mean) [4]: 0.2377

The next lines start with the values.

Chip Fluorescence (max) [5]: 1.8162 | Chip Fluorescence (mean) [6]: 0.005772
Sequence: TFWMNPQYKIKLEEPD [SeqRBMlowT_4687]

Chip Fluorescence (max) [3]: 3.897 | Chip Fluorescence (mean) [4]: 1.75
Sequence: TFWSNPQFDIALDDDD [SeqRBM_1928]

Chip Fluorescence (max) [7]: 1.116 | Chip Fluorescence (mean) [8]: -0.2464
Sequence: TFWSNPQFKIKLEEED [SeqRBMlowT_8507]

Chip Fluorescence (max) [9]: 0.1109 | Chip Fluorescence (mean) [10]: -0.8373
Sequence: TFWSNPQFKITLEDPD [SeqRBMlowT_3183]

Chip Fluorescence (max) [11]: 0.5324 | Chip Fluorescence (mean) [12]: -0.206
Sequence: TFWSNPQFRITLEEPD [SeqRBMlowT_9100]

Chip Fluorescence (max) [11]: 0.3751 | Chip Fluorescence (mean) [12]: -0.8998
Sequence: TFWSNPQFTITLAEPD [SeqRBMlowT_8092]

Chip Fluorescence (max) [1]: 3.032 | Chip Fluorescence (mean) [2]: 1.049
Sequence: TFWSNPQYFVTLLESD [SeqRBM_6656]

Chip Fluorescence (max) [1]: 3.254 | Chip Fluorescence (mean) [2]: 0.9673
Sequence: TFWSNPQYKITLEEPD [SeqRBMlowT_9677]

Chip Fluorescence (max) [5]: 1.84 | Chip Fluorescence (mean) [6]: -0.4239
Sequence: TFWTNPQFKITLEDPD [SeqRBMlowT_205]

Chip Fluorescence (max) [1]: 2.6605 | Chip Fluorescence (mean) [2]: 0.5654
Sequence: TFWTNPQFKITLEELD [SeqRBMlowT_5669]

Chip Fluorescence (max) [1]: 2.6 | Chip Fluorescence (mean) [2]: 0.9758
Sequence: TFWTNPQFKITLEEPD [SeqRBMlowT_951]

Chip Fluorescence (max) [7]: 1.236 | Chip Fluorescence (mean) [8]: 0.1676
Sequence: TFWTNPQFKITLEEVD [SeqRBMlowT_4669]

Chip Fluorescence (max) [7]: 1.278 | Chip Fluorescence (mean) [8]: -0.7291
Sequence: TFWTNPQFKITLTDPD [SeqRBMlowT_9027]

Chip Fluorescence (max) [7]: 1.036 | Chip Fluorescence (mean) [8]: -0.78
Sequence: TFWTNPQFKITLTEPD [SeqRBMlowT_689]

Chip Fluorescence (max) [1]: 3.1491 | Chip Fluorescence (mean) [2]: 0.8579
Sequence: TFWTNPQFKLKLLDPD [SeqRBMlowT_4269]

Chip Fluorescence (max) [11]: 0.7466 | Chip Fluorescence (mean) [12]: -0.6386
Sequence: TFWTNPQFKVKLEDPD [SeqRBMlowT_4293]

Chip Fluorescence (max) [5]: 1.498 | Chip Fluorescence (mean) [6]: -0.7469
Sequence: TFWTNPQFKVKLEDVD [SeqRBMlowT_6885]

Chip Fluorescence (max) [11]: 0.5686 | Chip Fluorescence (mean) [12]: -0.7828
Sequence: TFWTNPQFKVKLEEPD [SeqRBMlowT_221]

Chip Fluorescence (max) [1]: 2.844 | Chip Fluorescence (mean) [2]: 1.205
Sequence: TFWTNPQFRIHLEEED [SeqRBMlowT_251]

Chip Fluorescence (max) [1]: 2.652 | Chip Fluorescence (mean) [2]: 0.4239
Sequence: TFWTNPQFRIKLEDPD [SeqRBMlowT_91]

Chip Fluorescence (max) [7]: 1.08 | Chip Fluorescence (mean) [8]: -0.755
Sequence: TFWTNPQFRIKVEDPD [SeqRBMlowT_6818]

Chip Fluorescence (max) [1]: 2.88 | Chip Fluorescence (mean) [2]: 0.5672
Sequence: TFWTNPQFRITLDSPD [SeqRBMlowT_5998]

Chip Fluorescence (max) [1]: 2.946 | Chip Fluorescence (mean) [2]: 1.658
Sequence: TFWTNPQFRITLEDPD [SeqRBMlowT_31]

Chip Fluorescence (max) [1]: 2.9488 | Chip Fluorescence (mean) [2]: 0.108
Sequence: TFWTNPQFRITLEDVD [SeqRBMlowT_966]

Chip Fluorescence (max) [1]: 2.934 | Chip Fluorescence (mean) [2]: 1.6891
Sequence: TFWTNPQFRITVTDPD [SeqRBMlowT_669]

Chip Fluorescence (max) [11]: 0.8365 | Chip Fluorescence (mean) [12]: -0.3514
Sequence: TFWTNPQFRLKLEDPD [SeqRBMlowT_699]

Chip Fluorescence (max) [3]: 7.691 | Chip Fluorescence (mean) [4]: 2.027
Sequence: TFWTNPQFRLKLEEVD [SeqRBMlowT_5628]

Chip Fluorescence (max) [5]: 1.422 | Chip Fluorescence (mean) [6]: -0.7542
Sequence: TFWTNPQFRLKLIDPD [SeqRBMlowT_9197]

Chip Fluorescence (max) [3]: 3.886 | Chip Fluorescence (mean) [4]: 0.4656
Sequence: TFWTNPQFRLKLVDVD [SeqRBMlowT_5534]

Chip Fluorescence (max) [7]: 1.238 | Chip Fluorescence (mean) [8]: 0.4236
Sequence: TFWTNPQFRLTLLSPD [SeqRBMlowT_9173]

Chip Fluorescence (max) [11]: 0.479 | Chip Fluorescence (mean) [12]: -1.105
Sequence: TFWTNPQFRVKLEDPD [SeqRBMlowT_223]

Chip Fluorescence (max) [11]: 0.5145 | Chip Fluorescence (mean) [12]: -0.7212
Sequence: TFWTNPQFRVKLEEPD [SeqRBMlowT_201]

Chip Fluorescence (max) [9]: 0.1471 | Chip Fluorescence (mean) [10]: -0.7824
Sequence: TFWTNPQFRVTVTEPD [SeqRBMlowT_4663]

Chip Fluorescence (max) [5]: 1.659 | Chip Fluorescence (mean) [6]: -0.5285
Sequence: TFWTNPQFTITLEEPD [SeqRBMlowT_1494]

Chip Fluorescence (max) [7]: 1.011 | Chip Fluorescence (mean) [8]: -0.2929
Sequence: TFWTNPQFVTLVKDGD [SeqRBM_8117]

Chip Fluorescence (max) [11]: 0.9474 | Chip Fluorescence (mean) [12]: 0.1413
Sequence: TFWTNPQYKVKLEDPD [SeqRBMlowT_2919]

Chip Fluorescence (max) [11]: 0.4524 | Chip Fluorescence (mean) [12]: -0.5715
Sequence: TFWTNPQYRIKLTDAD [SeqRBMlowT_4313]

Chip Fluorescence (max) [9]: -0.2746 | Chip Fluorescence (mean) [10]: -1.188
Sequence: TFWTNPQYRIKVTDPD [SeqRBMlowT_12]
